Test results from BigSolDB 2.1.

OC[C@H]1O[C@@H](c2ccc(Cl)c(Cc3ccc(O[C@H]4CCOC4)cc3)c2)[C@H](O)[C@@H](O)[C@@H]1O
solubility (mole fraction)
Conditions | in DMF | in acetonitrile | in ethanol | in ethyl acetate | in ethylene glycol | in formamide | in methanol | in n-butanol | in n-propanol
278.15 K | 0.00117 | 6.19e-07 | 2.33e-06 | 7.16e-07 | 1.16e-05 | 8.05e-05 | 1.77e-05 | 1.81e-06 | 1.59e-06
283.15 K | 0.00124 | 9.85e-07 | 3.77e-06 | 1.07e-06 | 1.48e-05 | 9.2e-05 | 2.48e-05 | 2.73e-06 | 2.43e-06
288.15 K | 0.00129 | 1.46e-06 | 4.84e-06 | 1.42e-06 | 1.91e-05 | 0.000108 | 3e-05 | 4.04e-06 | 3.39e-06
293.15 K | 0.00134 | 1.97e-06 | 6.6e-06 | 1.97e-06 | 2.43e-05 | 0.000122 | 3.65e-05 | 5.9e-06 | 4.54e-06
298.15 K | 0.00142 | 2.62e-06 | 8.45e-06 | 2.56e-06 | 3.41e-05 | 0.000143 | 4.46e-05 | 8.49e-06 | 6.09e-06
303.15 K | 0.00149 | 3.52e-06 | 1.1e-05 | 3.12e-06 | 4.21e-05 | 0.000174 | 5.54e-05 | 1.2e-05 | 7.88e-06
308.15 K | 0.00158 | 4.87e-06 | 1.4e-05 | 4.27e-06 | 5.91e-05 | 0.000202 | 6.9e-05 | 1.62e-05 | 1.04e-05
313.15 K | 0.00165 | 6.15e-06 | 1.85e-05 | 5.56e-06 | 7.01e-05 | 0.000248 | 8.53e-05 | 2.21e-05 | 1.43e-05
318.15 K | 0.00171 | 8.16e-06 | 2.43e-05 | 6.89e-06 | 8.59e-05 | 0.000303 | 0.00011 | 3.02e-05 | 1.99e-05
